In patent US20040127571A1 (UNIVERSITY OF SOUTH FLORIDA, priority 2002, published 2004):

How the values were obtained:
histones (H3), p21 = assay: Histone acetylation and p21 expression after SAHA (FIG. 2B); assay type: cell-based
Text: (§1) Moreover, exposure to SAHA increases the acetylation of histones (H3) and the expression of p21 (FIG. 2B). […] SAHA downregulates the levels and auto-phosphorylation, the addition of a phosphate group, of Bcr-Abl (FIG. 2C).

[1] = test system: imatinib refractory (resistant) cells; assay: Apoptosis of imatinib refractory cells after SAHA; assay type: cell-based
p27 in LAMA cells = assay: p27 expression in LAMA cells after SAHA (FIG. 2B); assay type: cell-based
Text: as §1

p27 in K562 cells = assay: p27 expression in K562 cells after SAHA (FIG. 2B); assay type: cell-based
Text: as §1

Lama-84 cells = assay: Apoptosis of Lama-84 cells after SAHA exposure; assay type: cell-based; conditions: 1.0 to 10.0 uM SAHA for 48 hours; FIG. 2A
Bcr-Abl = Bcr-Abl levels and auto-phosphorylation after SAHA (FIG. 2C); assay type: cell-based
Text: as §1

p27 (gene) = conditions: previously shown; cited from earlier work
K562 = assay: Cell cycle distribution of K562 cells after SAHA; assay type: cell-based; conditions: 1.0 to 5.0 uM SAHA for 48 hours; dose-dependent
Method: Treatment with 1.0 to 5.0 uM SAHA for 48 hours increased the percentage of K562 in the G1 (the gap in the cell division cycle between mitosis and synthesis) phase of the cell cycle in a dose-dependent manner.

K562 cells = assay: Apoptosis of K562 cells after SAHA exposure; assay type: cell-based; conditions: 1.0 to 10.0 uM SAHA for 48 hours; FIG. 2A

## O=C(CCCCCCC(=O)Nc1ccccc1)NO [SAHA, Suberoylanilide Hydromaxic Acid]
Histones (H3), p21
  acetylation of histones (H3): increases
  expression of p21: increases
[1]
  apoptosis in imatinib refractory (resistant) cells: induces apoptosis
p27 in LAMA cells
  p27 expression: induced p27 expression
p27 in K562 cells
  p27 expression: induced p27 expression
Lama-84 cells
  apoptosis of Lama-84 cells: dose-dependent increase
Bcr-Abl
  auto-phosphorylation of Bcr-Abl: downregulates
  levels of Bcr-Abl: downregulates
p27 (gene)
  acetylation of histones of the chromatin associated with p27 (gene) / its transcription: not to induce acetylation
K562
  percentage of K562 in the G1 phase of the cell cycle: increased
K562 cells
  apoptosis of K562 cells: dose-dependent increase
